Reference: patent publication US20230113037A1 (Bayer Aktiengesellschaft, priority 2019, published 2023)

The compounds below were run against T1, AHR (Mus musculus, UniProt P30561) (assay: In vitro assay 3: antagonism in mouse cell line (AHR transactivation, firefly luciferase reporter, kynurenic acid prestimulated)). Conditions: mouse Hepa 1c1c7 cells, 200 μM kynurenic acid, 20 hours, read-out: AHR Antagonism Mouse IC50.
T1 sequence (P30561 1-848 P471L/N533S/M589L): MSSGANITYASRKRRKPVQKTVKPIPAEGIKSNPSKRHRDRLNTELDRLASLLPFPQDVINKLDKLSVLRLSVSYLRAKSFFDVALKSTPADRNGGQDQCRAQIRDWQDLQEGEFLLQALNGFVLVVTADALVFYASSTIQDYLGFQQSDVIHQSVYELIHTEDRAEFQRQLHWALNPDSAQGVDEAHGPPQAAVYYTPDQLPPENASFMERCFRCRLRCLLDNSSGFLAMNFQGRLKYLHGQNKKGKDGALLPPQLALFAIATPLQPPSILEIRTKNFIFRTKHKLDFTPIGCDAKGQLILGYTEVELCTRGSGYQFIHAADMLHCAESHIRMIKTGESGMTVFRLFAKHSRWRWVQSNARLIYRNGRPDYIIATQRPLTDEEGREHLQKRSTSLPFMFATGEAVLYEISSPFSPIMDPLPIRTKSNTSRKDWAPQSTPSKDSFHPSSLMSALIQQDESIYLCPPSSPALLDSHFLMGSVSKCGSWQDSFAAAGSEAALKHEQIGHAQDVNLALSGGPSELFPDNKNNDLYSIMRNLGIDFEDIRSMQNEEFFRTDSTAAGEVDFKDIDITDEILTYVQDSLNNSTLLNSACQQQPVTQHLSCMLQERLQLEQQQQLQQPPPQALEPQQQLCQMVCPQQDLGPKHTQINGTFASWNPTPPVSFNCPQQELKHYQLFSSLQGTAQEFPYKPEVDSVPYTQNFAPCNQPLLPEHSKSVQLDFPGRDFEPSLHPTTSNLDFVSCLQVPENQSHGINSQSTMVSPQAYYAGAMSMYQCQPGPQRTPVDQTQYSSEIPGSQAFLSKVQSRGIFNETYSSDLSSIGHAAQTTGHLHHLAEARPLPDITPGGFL
Type: cell-based
Description: Examples were tested in selected biological assays one or more times. When tested more than once, data are reported as either average values or as median values, wherein • the average value, also referred to as the arithmetic mean value, represents the sum of the values obtained divided by the number of times tested, and • the median value represents the middle number of the group of values when ranked in ascending or descending order. If the number of values in the data set is odd, the median is the middle value. If the number of values in the data set is even, the median is the arithmetic mean of the two middle values.
In addition the cells were stably transfected with an AHR inducible firefly luciferase reporter gene construct that carried AHR-binding sites (DRE) in its promoter. Kynurenic acid is an endogenous AHR activating ligand and was used to prestimulate test cells prior to testing the antagonistic properties of compounds.
As positive inhibition control cells without addition of kynurenic acid were incubated. Normalization was done by positive and negative controls.
Firefly luciferase activity was determined by the SteadyGlo Luciferase Assay System (Promega, #E2550).

Compound	IC50 [nM]
COc1ccc(-c2nc3c4c(C)cccc4nc(NC4CNCCNC4=O)n3n2)cc1 (stereo not drawn) [Example 192, 6-{[2-(4-methoxyphenyl)-10-methyl[1,2,4]triazolo[1,5-c]quinazolin-5-yl]amino}-1,4-diazepan-5-one]	34.9
O=C1NCCCC[C@@H]1Nc1nc2c(Br)cccc2c2nc(-c3cccc(F)c3)nn12 [Example 209, (3S)-3-{[7-bromo-2-(3-fluorophenyl)[1,2,4]triazolo[1,5-c]quinazolin-5-yl]amino}azepan-2-one]	15.5
COc1ccc(-c2nc3c4cccc(Br)c4nc(N[C@H]4CCCCNC4=O)n3n2)cc1 [Example 211, (3S)-3-{[7-bromo-2-(4-methoxyphenyl)[1,2,4]triazolo[1,5-c]quinazolin-5-yl]amino}azepan-2-one]	16.7
CSc1ccc(-c2nc3c4ccccc4nc(N[C@@H]4CNCCNC4=O)n3n2)cc1 [Example 256, (6R)-6-({2-[4-(methylsulfanyl)phenyl][1,2,4]triazolo[1,5-c]quinazolin-5-yl}amino)-1,4-diazepan-5-one]	6.94
Cn1cc(-c2nc3c4cccc(Br)c4nc(N[C@@H]4CNCCNC4=O)n3n2)cn1 [Example 267, (6R)-6-{[7-bromo-2-(1-methyl-1H-pyrazol-4-yl)[1,2,4]triazolo[1,5-c]quinazolin-5-yl]amino}-1,4-diazepan-5-one]	24.7
COc1ccc(-c2nc3c4cc(C)ccc4nc(N[C@@H]4CNCCNC4=O)n3n2)cc1 [Example 280, (6R)-6-{[2-(4-methoxyphenyl)-9-methyl[1,2,4]triazolo[1,5-c]quinazolin-5-yl]amino}-1,4-diazepan-5-one]	33.3
O=C1NCCNCC1Nc1nc2cccc(Br)c2c2nc(-c3ccc(F)cc3)nn12 (stereo not drawn) [Example 282, 6-{[10-bromo-2-(4-fluorophenyl)[1,2,4]triazolo[1,5-c]quinazolin-5-yl]amino}-1,4-diazepan-5-one]	26.9
O=C1NCCNCC1Nc1nc2cccc(Br)c2c2nc(-c3cccc(F)c3)nn12 (stereo not drawn) [Example 283, 6-{[10-bromo-2-(3-fluorophenyl)[1,2,4]triazolo[1,5-c]quinazolin-5-yl]amino}-1,4-diazepan-5-one]	172
COc1ccc(-c2nc3c4c(C)cccc4nc(N[C@@H]4CNCCNC4=O)n3n2)cc1 [Example 290, (6R)-6-{[2-(4-methoxyphenyl)-10-methyl[1,2,4]triazolo[1,5-c]quinazolin-5-yl]amino}-1,4-diazepan-5-one]	288
COc1ccc(-c2nc3c4c(Cl)cccc4nc(NC4CNCCNC4=O)n3n2)cc1 (stereo not drawn) [Example 292, 6-{[10-chloro-2-(4-methoxyphenyl)[1,2,4]triazolo[1,5-c]quinazolin-5-yl]amino}-1,4-diazepan-5-one]	40.3
O=C1NCCNCC1Nc1nc2cccc(Cl)c2c2nc(-c3ccc(F)cc3)nn12 (stereo not drawn) [Example 293, 6-{[10-chloro-2-(4-fluorophenyl)[1,2,4]triazolo[1,5-c]quinazolin-5-yl]amino}-1,4-diazepan-5-one]	56.1
Cn1cc(-c2nc3c4c(C5CC5)cccc4nc(NC4CNCCNC4=O)n3n2)cn1 (stereo not drawn) [Example 294, 6-{[10-cyclopropyl-2-(1-methyl-1H-pyrazol-4-yl)[1,2,4]triazolo[1,5-c]quinazolin-5-yl]amino}-1,4-diazepan-5-one]	5430
CN1CC[C@@H](Nc2nc3ccccc3c3nc(-c4ccc(OC(F)(F)F)cc4)nn23)C1=O [Example 328, (3R)-1-methyl-3-({2-[4-(trifluoromethoxy)phenyl][1,2,4]triazolo[1,5-c]quinazolin-5-yl}amino)pyrrolidin-2-one]	19.3
N#Cc1ccc(-c2nc3c4ccccc4nc(N[C@@H]4CCNC4=O)n3n2)cc1 [Example 388, 4-(5-{[(3R)-2-oxopyrrolidin-3-yl]amino}[1,2,4]triazolo[1,5-c]quinazolin-2-yl)benzonitrile]	2890
O=C1NCCNC[C@H]1Nc1nc2ccccc2c2nc(-c3cnn(CCO)c3)nn12 [Example 414, (6R)-5-({2-[1-(2-hydroxyethyl)-1H-pyrazol-4-yl][1,2,4]triazolo[1,5-c]quinazolin-5-yl}amino)-1,4-diazepan-5-one]	> 20000
COc1ccc(-c2nc3c4cc(C(F)(F)F)ccc4nc(N[C@@H]4CNCCNC4=O)n3n2)cc1 [Example 418, (6R)-6-{[2-(4-methoxyphenyl)-9-(trifluoromethyl)[1,2,4]triazolo[1,5-c]quinazolin-5-yl]amino}-1,4-diazepan-5-one]	8710
CC[C@H](Nc1nc2ccccc2c2nc(-c3cccc(OC(F)(F)F)c3)nn12)C(N)=O [Example 448, (2S)-2-({2-[3-(trifluoromethoxy)phenyl][1,2,4]triazolo[1,5-c]quinazolin-5-yl}amino)butanamide]	134

Other lines, results leading:

IC50 [nM]	Compound
2.57	O=C1NCCCC[C@H]1Nc1nc2cccc(Br)c2c2nc(-c3ccc(F)cc3)nn12 [Example 166, (3R)-3-{[10-bromo-2-(4-fluorophenyl)[1,2,4]triazolo[1,5-c]quinazolin-5-yl]amino}azepan-2-one]
0.584	O=C1NCCCC[C@H]1Nc1nc2cccc(Cl)c2c2nc(-c3ccc(F)cc3)nn12 [Example 170, (3R)-3-{[10-chloro-2-(4-fluorophenyl)[1,2,4]triazolo[1,5-c]quinazolin-5-yl]amino}azepan-2-one]
5.01	O=C1NCCCC[C@@H]1Nc1nc2c(Br)cccc2c2nc(-c3ccc(F)cc3)nn12 [Example 210, (3S)-3-{[7-bromo-2-(4-fluorophenyl)[1,2,4]triazolo[1,5-c]quinazolin-5-yl]amino}azepan-2-one]
1.23	COc1ccc(-c2nc3c4cccc(Br)c4nc(N[C@@H]4CCCCNC4=O)n3n2)cc1 [Example 215, (3R)-3-{[7-bromo-2-(4-methoxyphenyl)[1,2,4]triazolo[1,5-c]quinazolin-5-yl]amino}azepan-2-one]
2.54	O=C1NCC[C@H]1Nc1nc2c(Br)cccc2c2nc(-c3ccc(F)cc3)nn12 [Example 217, (3R)-3-{[7-bromo-2-(4-fluorophenyl)[1,2,4]triazolo[1,5-c]quinazolin-5-yl]amino}pyrrolidin-2-one]
1.53	O=C1NCCC[C@H]1Nc1nc2c(Br)cccc2c2nc(-c3ccc(F)cc3)nn12 [Example 226, (3R)-3-{[7-bromo-2-(4-fluorophenyl)[1,2,4]triazolo[1,5-c]quinazolin-5-yl]amino}piperidin-2-one]
0.644	O=C1NCCNC[C@H]1Nc1nc2ccccc2c2nc(-c3ccc(C(F)(F)F)cc3)nn12 [Example 259, (6R)-6-({2-[4-(trifluoromethyl)phenyl][1,2,4]triazolo[1,5-c]quinazolin-5-yl}amino)-1,4-diazepan-5-one]
6.75	O=C1NCCNC[C@H]1Nc1nc2ccccc2c2nc(-c3ccc(F)cc3)nn12 [Example 260, (6R)-6-{[2-(4-fluorophenyl)[1,2,4]triazolo[1,5-c]quinazolin-5-yl]amino}-1,4-diazepan-5-one]
1.2	O=C1NCCNC[C@H]1Nc1nc2c(Br)cccc2c2nc(-c3ccc(F)cc3)nn12 [Example 269, (6R)-6-{[7-bromo-2-(4-fluorophenyl)[1,2,4]triazolo[1,5-c]quinazolin-5-yl]amino}-1,4-diazepan-5-one]
5.29	O=C1NCC[C@H]1Nc1nc2ccccc2c2nc(-c3ccc(OC(F)(F)F)cc3)nn12 [Example 327, (3R)-3-({2-[4-(trifluoromethoxy)phenyl][1,2,4]triazolo[1,5-c]quinazolin-5-yl}amino)pyrrolidin-2-one]
6.04	O=C1NCCC[C@H]1Nc1nc2ccccc2c2nc(-c3ccc(OC(F)(F)F)cc3)nn12 [Example 332, (3R)-3-({2-[4-(trifluoromethoxy)phenyl][1,2,4]triazolo[1,5-c]quinazolin-5-yl}amino)piperidin-2-one]
3.16	O=C1NCCNC[C@H]1Nc1nc2c(F)cccc2c2nc(-c3ccc(F)cc3)nn12 [Example 427, (6R)-6-{[7-fluoro-2-(4-fluorophenyl)[1,2,4]triazolo[1,5-c]quinazolin-5-yl]amino}-1,4-diazepan-5-one]

Same assay, conditions: read-out: AHR Antagonism Mouse IC50, mouse Hepa 1c1c7 cells, 200 μM kynurenic acid, 20 hours

Compound	IC50 [nM]
O=C1NCCCC[C@@H]1Nc1nc2ccccc2c2nc(-c3cc(C(F)(F)F)ccn3)nn12 [Example 364]	247
